A word on the MIC: it is the lowest concentration found to suppress growth.

The subject of this experiment is Mycobacterium tuberculosis variant bovis. As to the kind of experiment: Antimycobacterial activity against Mycobacterium bovis ATCC35737 assessed as mycobacterial growth inhibition. The format is functional.

Structures are written as SMILES. Values after ≈ are worked out from the molar mass of the structure shown.

With `COc1ncc(-c2ccccc2)cc1[C@@H](c1ccccc1)[C@@](O)(CCN(C)C)c1cccc2ccccc12`, the MIC turned out to be 0.5 µg/mL (≈ 0.995 µM).
